Measured values reported in patent US20120034193A1, “TREATMENT OF NEUROTROPHIC FACTOR MEDIATED DISORDERS” (priority 2009, published 2012).

Experiments:
Assay in all cases: Binding assay
Details in all cases: smilagenin 1 μM
[1] = target: 5-Hydroxytryptamine, 5-HT1B (Rattus norvegicus, UniProt P28564)
Outline: (§1)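 Competition with a radiolabelled high-affinity ligand is assessed in receptor-containing homogenate, compound present at 1 μM. Once non-bound label is removed, specific binding is quantified and compared with that in the compound's absence to derive percent inhibition.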

[2] = target: 5-Hydroxytryptamine, 5-HT3 (Homo sapiens, UniProt P46098)
Outline: as §1

APJ = APJ (Homo sapiens, UniProt P35414)
Sequence of APJ (P35414 whole entry): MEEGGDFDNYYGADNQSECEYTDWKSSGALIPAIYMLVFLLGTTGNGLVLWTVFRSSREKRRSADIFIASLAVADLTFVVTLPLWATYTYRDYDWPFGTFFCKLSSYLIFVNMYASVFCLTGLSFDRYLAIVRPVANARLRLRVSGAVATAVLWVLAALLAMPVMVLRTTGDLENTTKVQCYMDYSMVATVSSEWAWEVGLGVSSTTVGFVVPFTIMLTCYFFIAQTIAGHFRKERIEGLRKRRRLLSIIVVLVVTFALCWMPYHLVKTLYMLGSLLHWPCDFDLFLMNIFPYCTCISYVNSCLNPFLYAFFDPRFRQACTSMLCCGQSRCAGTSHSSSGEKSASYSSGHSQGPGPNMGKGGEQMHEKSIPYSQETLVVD
Outline: as §1

Adrenergic α1A = Adrenergic α1A (Rattus norvegicus, UniProt P43140)
Outline: as §1

Adrenergic α2A = Adrenergic α2A (Homo sapiens, UniProt P08913)
Outline: as §1

Adrenergic β3 = Adrenergic β3 (Homo sapiens, UniProt P13945)
Outline: as §1

Angiotensin AT1 = Angiotensin AT1 (Homo sapiens, UniProt P30556)
Sequence of Angiotensin AT1 (P30556 whole entry): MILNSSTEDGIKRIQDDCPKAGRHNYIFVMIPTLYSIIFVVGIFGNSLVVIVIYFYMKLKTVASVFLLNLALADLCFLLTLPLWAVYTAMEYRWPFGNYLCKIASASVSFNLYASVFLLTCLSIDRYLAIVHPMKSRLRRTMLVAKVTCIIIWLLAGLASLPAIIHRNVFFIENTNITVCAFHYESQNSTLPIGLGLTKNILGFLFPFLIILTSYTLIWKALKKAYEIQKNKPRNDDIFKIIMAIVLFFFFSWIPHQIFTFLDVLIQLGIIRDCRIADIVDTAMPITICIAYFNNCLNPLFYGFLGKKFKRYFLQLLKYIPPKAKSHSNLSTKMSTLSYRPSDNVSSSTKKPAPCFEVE
Outline: as §1

Bradykinin B2 = Bradykinin B2 (Homo sapiens, UniProt P30411)
Sequence of Bradykinin B2 (P30411 whole entry): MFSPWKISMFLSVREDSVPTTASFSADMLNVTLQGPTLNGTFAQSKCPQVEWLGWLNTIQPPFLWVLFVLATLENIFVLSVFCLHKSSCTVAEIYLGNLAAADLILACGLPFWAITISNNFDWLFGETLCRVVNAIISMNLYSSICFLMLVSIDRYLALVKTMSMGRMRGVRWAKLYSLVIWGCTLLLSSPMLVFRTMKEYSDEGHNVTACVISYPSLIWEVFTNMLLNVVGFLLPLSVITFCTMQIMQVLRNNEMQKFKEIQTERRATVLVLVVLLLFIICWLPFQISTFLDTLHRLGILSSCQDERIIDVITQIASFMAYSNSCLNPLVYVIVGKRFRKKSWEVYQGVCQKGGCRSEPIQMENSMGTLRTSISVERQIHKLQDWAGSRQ
Outline: as §1

[3] = target: Calcitonin Gene-Related Peptide CGRP1 (Homo sapiens, UniProt O60894+Q16602)
Outline: as §1

Calcium Channel N-Type = Calcium Channel N-Type (Rattus norvegicus, UniProt Q02294)
Outline: as §1

Chemokine CCR4 = Chemokine CCR4 (Homo sapiens, UniProt P51679)
Outline: as §1

Chemokine CCR5 = Chemokine CCR5 (Homo sapiens, UniProt P51681)
Sequence of Chemokine CCR5 (P51681 whole entry): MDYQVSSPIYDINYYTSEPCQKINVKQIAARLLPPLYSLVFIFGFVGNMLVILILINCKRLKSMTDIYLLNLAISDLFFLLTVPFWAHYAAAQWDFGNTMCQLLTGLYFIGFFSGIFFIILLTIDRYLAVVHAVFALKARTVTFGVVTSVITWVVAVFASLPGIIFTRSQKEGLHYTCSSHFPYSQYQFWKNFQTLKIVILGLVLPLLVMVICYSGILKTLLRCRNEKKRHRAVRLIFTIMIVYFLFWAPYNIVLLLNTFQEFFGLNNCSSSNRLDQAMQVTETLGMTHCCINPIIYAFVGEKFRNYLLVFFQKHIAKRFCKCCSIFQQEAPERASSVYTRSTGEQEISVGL
Outline: as §1

[4] = target: Cholecystokinin CCK1 (CCKA) (Homo sapiens, UniProt P32238)
Outline: as §1

[5] = target: Cholecystokinin CCK2 (CCKB) (Homo sapiens, UniProt P32239)
Sequence of Cholecystokinin CCK2 (CCKB) (P32239 whole entry): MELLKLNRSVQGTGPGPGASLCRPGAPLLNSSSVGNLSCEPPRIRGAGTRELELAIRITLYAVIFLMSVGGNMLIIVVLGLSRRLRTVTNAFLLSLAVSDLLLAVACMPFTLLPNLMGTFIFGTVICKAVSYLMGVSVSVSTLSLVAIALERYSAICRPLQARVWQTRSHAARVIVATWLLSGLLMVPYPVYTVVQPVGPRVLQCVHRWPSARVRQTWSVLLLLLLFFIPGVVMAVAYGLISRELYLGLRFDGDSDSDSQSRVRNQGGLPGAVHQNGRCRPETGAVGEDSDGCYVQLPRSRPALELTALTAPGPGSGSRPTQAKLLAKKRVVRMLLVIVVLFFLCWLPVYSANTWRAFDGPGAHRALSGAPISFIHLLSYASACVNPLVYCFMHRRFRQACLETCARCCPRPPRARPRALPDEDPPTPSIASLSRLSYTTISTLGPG
Outline: as §1

Dopamine D3 = Dopamine D3 (Homo sapiens, UniProt P35462)
Outline: as §1

Dopamine D4.2 = Dopamine D4.2 (Homo sapiens, UniProt P21917, DEL265-296)
Outline: as §1

[6] = target: T1, G Protein-Coupled Receptor GPR 103 (Homo sapiens, UniProt Q96P65)
T1 construct: host or cells: tissue or cell homogenate (not specified)
Outline: as §1

Galanin GAL1 = target: T2, Galanin GAL1 (Homo sapiens, UniProt P47211)
T2 construct: host or cells: tissue or cell homogenate (not specified)
Outline: as §1

Histamine H2 = target: T3, Histamine H2 (Homo sapiens, UniProt P25021)
T3 construct: host or cells: tissue or cell homogenate (not specified)
Outline: as §1

Insulin = Insulin (Rattus norvegicus, UniProt P15127)
Sequence of Insulin (P15127 27-759 limits assumed): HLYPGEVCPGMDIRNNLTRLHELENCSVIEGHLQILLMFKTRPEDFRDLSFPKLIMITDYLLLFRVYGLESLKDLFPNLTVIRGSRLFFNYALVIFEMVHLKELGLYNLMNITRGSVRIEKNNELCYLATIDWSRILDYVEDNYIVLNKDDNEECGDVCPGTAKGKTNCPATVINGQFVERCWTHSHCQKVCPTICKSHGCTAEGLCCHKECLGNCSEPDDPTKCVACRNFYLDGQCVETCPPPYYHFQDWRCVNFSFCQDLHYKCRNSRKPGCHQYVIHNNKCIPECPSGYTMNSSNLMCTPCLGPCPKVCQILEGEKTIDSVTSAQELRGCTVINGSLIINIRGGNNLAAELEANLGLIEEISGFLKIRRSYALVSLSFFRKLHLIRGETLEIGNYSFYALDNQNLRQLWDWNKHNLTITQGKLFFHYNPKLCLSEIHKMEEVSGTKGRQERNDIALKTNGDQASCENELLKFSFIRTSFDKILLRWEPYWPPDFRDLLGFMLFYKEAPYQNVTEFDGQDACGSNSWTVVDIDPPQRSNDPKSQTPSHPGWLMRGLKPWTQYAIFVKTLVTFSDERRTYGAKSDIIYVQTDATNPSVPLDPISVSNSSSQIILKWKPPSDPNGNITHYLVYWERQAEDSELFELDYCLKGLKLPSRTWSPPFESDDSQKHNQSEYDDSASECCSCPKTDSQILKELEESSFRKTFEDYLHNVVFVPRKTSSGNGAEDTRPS
Sequence of Insulin (P15127 764-1383 partner limits assumed): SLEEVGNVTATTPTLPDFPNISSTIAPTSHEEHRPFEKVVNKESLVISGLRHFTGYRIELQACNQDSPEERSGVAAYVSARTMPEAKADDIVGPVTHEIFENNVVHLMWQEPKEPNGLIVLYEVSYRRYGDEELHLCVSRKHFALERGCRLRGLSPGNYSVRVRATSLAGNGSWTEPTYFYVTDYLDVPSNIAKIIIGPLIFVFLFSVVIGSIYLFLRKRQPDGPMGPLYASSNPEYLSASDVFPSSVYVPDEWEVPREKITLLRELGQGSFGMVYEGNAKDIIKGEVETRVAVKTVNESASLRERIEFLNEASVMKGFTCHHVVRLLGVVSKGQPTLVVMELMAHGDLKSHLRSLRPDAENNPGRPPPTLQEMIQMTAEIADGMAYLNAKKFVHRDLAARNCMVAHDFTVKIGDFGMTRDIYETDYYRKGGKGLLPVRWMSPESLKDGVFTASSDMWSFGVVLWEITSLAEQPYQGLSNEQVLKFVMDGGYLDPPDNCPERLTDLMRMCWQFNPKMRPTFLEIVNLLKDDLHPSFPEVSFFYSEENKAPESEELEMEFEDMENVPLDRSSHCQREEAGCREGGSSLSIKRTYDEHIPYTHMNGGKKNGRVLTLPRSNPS
Outline: as §1

Interleukin IL-2 = Interleukin IL-2 (Mus musculus, UniProt P01590)
Outline: as §1

[7] = target: Leukotriene, Cysteinyl CysLT1 (Homo sapiens, UniProt Q9Y271)
Outline: as §1

Melatonin MT1 = Melatonin MT1 (Homo sapiens, UniProt P48039)
Outline: as §1

Melatonin MT2 = Melatonin MT2 (Homo sapiens, UniProt P49286)
Outline: as §1

Muscarinic M2 = target: T4, Muscarinic M2 (Homo sapiens, UniProt P08172)
T4 construct: host or cells: tissue or cell homogenate, not specified
T4 sequence (P08172 whole entry): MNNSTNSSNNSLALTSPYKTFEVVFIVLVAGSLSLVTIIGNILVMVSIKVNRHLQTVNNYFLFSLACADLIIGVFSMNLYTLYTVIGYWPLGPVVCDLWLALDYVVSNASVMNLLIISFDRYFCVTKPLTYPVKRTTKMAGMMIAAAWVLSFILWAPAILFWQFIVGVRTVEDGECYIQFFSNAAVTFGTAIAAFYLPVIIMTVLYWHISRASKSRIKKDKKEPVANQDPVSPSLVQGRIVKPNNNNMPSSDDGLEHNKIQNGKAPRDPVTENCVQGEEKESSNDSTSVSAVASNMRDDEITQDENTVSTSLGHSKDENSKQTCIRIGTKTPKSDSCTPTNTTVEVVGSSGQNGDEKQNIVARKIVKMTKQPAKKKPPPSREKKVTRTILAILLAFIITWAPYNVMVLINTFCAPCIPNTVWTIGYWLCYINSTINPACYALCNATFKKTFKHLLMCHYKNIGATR
Outline: as §1

Muscarinic M4 = target: T5, Muscarinic M4 (Homo sapiens, UniProt P08173)
T5 construct: host or cells: tissue or cell homogenate, not specified
T5 sequence (P08173 whole entry): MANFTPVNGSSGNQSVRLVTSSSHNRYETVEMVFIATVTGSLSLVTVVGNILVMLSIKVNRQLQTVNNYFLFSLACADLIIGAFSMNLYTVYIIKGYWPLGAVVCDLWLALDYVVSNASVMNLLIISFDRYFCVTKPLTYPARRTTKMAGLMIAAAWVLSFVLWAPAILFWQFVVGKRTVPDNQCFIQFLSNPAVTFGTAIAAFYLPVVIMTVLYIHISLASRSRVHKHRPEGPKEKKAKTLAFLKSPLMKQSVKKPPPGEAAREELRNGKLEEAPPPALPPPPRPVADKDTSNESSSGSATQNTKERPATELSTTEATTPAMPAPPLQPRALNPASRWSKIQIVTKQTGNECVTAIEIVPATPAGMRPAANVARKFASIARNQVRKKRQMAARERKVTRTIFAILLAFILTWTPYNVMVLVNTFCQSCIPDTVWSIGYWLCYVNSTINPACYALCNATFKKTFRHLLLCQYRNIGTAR
Outline: as §1

Neuropeptide Y Y2 = Neuropeptide Y Y2 (Homo sapiens, UniProt P49146)
Sequence of Neuropeptide Y Y2 (P49146 whole entry): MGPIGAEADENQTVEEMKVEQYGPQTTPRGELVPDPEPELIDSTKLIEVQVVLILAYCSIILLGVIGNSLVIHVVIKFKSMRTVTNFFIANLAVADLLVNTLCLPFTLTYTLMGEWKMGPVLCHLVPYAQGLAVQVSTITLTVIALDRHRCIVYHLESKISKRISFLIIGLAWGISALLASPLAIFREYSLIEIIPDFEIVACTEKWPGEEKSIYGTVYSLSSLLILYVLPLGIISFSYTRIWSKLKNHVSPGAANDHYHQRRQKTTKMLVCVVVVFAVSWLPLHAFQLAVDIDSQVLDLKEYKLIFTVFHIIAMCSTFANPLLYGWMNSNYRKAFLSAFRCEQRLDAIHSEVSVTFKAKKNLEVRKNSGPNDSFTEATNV
Outline: as §1

Oestrogen (ERα) = target: T6, Oestrogen (ERα) (Homo sapiens, UniProt P03372)
T6 construct: host or cells: tissue or cell homogenate (not specified)
Outline: as §1

Ryanodine RyR3 = Ryanodine RyR3 (Rattus norvegicus, UniProt A0ABK0LPH6)
Outline: as §1

Somatostatin sst2 = Somatostatin sst2 (Homo sapiens, UniProt P30874)
Outline: as §1

Somatostatin sst4 = Somatostatin sst4 (Homo sapiens, UniProt P31391)
Outline: as §1

Somatostatin sst5 = Somatostatin sst5 (Homo sapiens, UniProt P35346)
Sequence of Somatostatin sst5 (P35346 whole entry): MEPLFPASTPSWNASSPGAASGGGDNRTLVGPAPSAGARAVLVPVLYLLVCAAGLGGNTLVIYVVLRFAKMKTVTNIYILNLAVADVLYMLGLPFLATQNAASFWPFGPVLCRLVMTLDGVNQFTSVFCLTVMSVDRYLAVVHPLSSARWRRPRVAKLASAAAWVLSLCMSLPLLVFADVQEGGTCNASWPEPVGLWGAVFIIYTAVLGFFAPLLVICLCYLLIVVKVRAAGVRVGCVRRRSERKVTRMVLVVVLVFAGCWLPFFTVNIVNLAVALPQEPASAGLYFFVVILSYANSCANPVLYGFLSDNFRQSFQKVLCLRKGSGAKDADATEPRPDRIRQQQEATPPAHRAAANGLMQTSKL
Outline: as §1

[8] = target: T7, Transporter, 5-hydroxytryptamine (SERT) (Homo sapiens, UniProt P31645)
T7 construct: host or cells: tissue or cell homogenate, not specified
Outline: as §1

Transporter, Choline = Transporter, Choline (Rattus norvegicus, UniProt Q9JMD7)
Outline: as §1

Urotensin II = target: T8, Urotensin II (Homo sapiens, UniProt Q9UKP6)
T8 construct: host or cells: tissue or cell homogenate, not specified
Outline: as §1

Vitamin D3 = target: T9, Vitamin D3 (Homo sapiens, UniProt P11473)
T9 construct: host or cells: tissue or cell homogenate, not specified
Outline: as §1

## C[C@@H]1CC[C@@]2(OC1)O[C@H]1C[C@H]3[C@@H]4CC[C@@H]5C[C@@H](O)CC[C@]5(C)[C@H]4CC[C@]3(C)[C@H]1[C@@H]2C [Smilagenin, smilagenin]
[1]
  Effect (%): NS (NS = No significant response. Significance was taken as ≧30% stimulation or inhibition)
[2]
  Effect (%): NS (NS = No significant response. Significance was taken as ≧30% stimulation or inhibition)
APJ
  Effect (%): NS (NS = No significant response. Significance was taken as ≧30% stimulation or inhibition)
Adrenergic α1A
  Effect (%): NS (NS = No significant response. Significance was taken as ≧30% stimulation or inhibition)
Adrenergic α2A
  Effect (%): NS (NS = No significant response. Significance was taken as ≧30% stimulation or inhibition)
Adrenergic β3
  Effect (%): NS (NS = No significant response. Significance was taken as ≧30% stimulation or inhibition)
Angiotensin AT1
  Effect (%): NS (NS = No significant response. Significance was taken as ≧30% stimulation or inhibition)
Bradykinin B2
  Effect (%): NS (NS = No significant response. Significance was taken as ≧30% stimulation or inhibition)
[3]
  Effect (%): NS (NS = No significant response. Significance was taken as ≧30% stimulation or inhibition)
Calcium Channel N-Type
  Effect (%): NS (NS = No significant response. Significance was taken as ≧30% stimulation or inhibition)
Chemokine CCR4
  Effect (%): NS (NS = No significant response. Significance was taken as ≧30% stimulation or inhibition)
Chemokine CCR5
  Effect (%): NS (NS = No significant response. Significance was taken as ≧30% stimulation or inhibition)
[4]
  Effect (%): NS (NS = No significant response. Significance was taken as ≧30% stimulation or inhibition)
[5]
  Effect (%): NS (NS = No significant response. Significance was taken as ≧30% stimulation or inhibition)
Dopamine D3
  Effect (%): NS (NS = No significant response. Significance was taken as ≧30% stimulation or inhibition)
Dopamine D4.2
  Effect (%): NS (NS = No significant response. Significance was taken as ≧30% stimulation or inhibition)
[6]
  Effect (%): NS (NS = No significant response. Significance was taken as ≧30% stimulation or inhibition)
Galanin GAL1
  Effect (%): NS (NS = No significant response. Significance was taken as ≧30% stimulation or inhibition)
Histamine H2
  Effect (%): NS (NS = No significant response. Significance was taken as ≧30% stimulation or inhibition)
Insulin
  Effect (%): NS (NS = No significant response. Significance was taken as ≧30% stimulation or inhibition)
Interleukin IL-2
  Effect (%): NS (NS = No significant response. Significance was taken as ≧30% stimulation or inhibition)
[7]
  Effect (%): NS (NS = No significant response. Significance was taken as ≧30% stimulation or inhibition)
Melatonin MT1
  Effect (%): NS (NS = No significant response. Significance was taken as ≧30% stimulation or inhibition)
Melatonin MT2
  Effect (%): NS (NS = No significant response. Significance was taken as ≧30% stimulation or inhibition)
Muscarinic M2
  Effect (%): NS (NS = No significant response. Significance was taken as ≧30% stimulation or inhibition)
Muscarinic M4
  Effect (%): NS (NS = No significant response. Significance was taken as ≧30% stimulation or inhibition)
Neuropeptide Y Y2
  Effect (%): NS (NS = No significant response. Significance was taken as ≧30% stimulation or inhibition)
Oestrogen (ERα)
  Effect (%): NS (NS = No significant response. Significance was taken as ≧30% stimulation or inhibition)
Ryanodine RyR3
  Effect (%): NS (NS = No significant response. Significance was taken as ≧30% stimulation or inhibition)
Somatostatin sst2
  Effect (%): NS (NS = No significant response. Significance was taken as ≧30% stimulation or inhibition)
Somatostatin sst4
  Effect (%): NS (NS = No significant response. Significance was taken as ≧30% stimulation or inhibition)
Somatostatin sst5
  Effect (%): NS (NS = No significant response. Significance was taken as ≧30% stimulation or inhibition)
[8]
  Effect (%): NS (NS = No significant response. Significance was taken as ≧30% stimulation or inhibition)
Transporter, Choline
  Effect (%): NS (NS = No significant response. Significance was taken as ≧30% stimulation or inhibition)
Urotensin II
  Effect (%): NS (NS = No significant response. Significance was taken as ≧30% stimulation or inhibition)
Vitamin D3
  Effect (%): NS (NS = No significant response. Significance was taken as ≧30% stimulation or inhibition)
